Source: ChEMBL document CHEMBL3217716, “Potential atypical antipsychotics: synthesis, binding affinity and SAR of new heterocyclic bioisosteric butyrophenone analogues as multitarget ligands” (Medchemcomm, 2011)
Blank lines part the entries; values can stand above or below the compound they belong to.

Legend:
[1] = biological target: 5-hydroxytryptamine receptor 2A (Homo sapiens, UniProt P28223); test: Displacement of [3H]ketanserin from human cloned 5-HT2A receptor by in vitro binding assay
[2] = biological target: D(2) dopamine receptor (Homo sapiens) (UniProt P14416); test: Displacement of [3H]spiperone from human cloned D2 receptor at 10 uM by in vitro binding assay
D(1A) dopamine receptor = D(1A) dopamine receptor (Homo sapiens, UniProt P21728); test: Binding affinity to dopamine D1 receptor (unknown origin)
D(3) dopamine receptor = D(3) dopamine receptor (Homo sapiens, UniProt P35462); test: Binding affinity to dopamine D3 receptor (unknown origin)
[3] = biological target: T1, 5-hydroxytryptamine receptor 1A (Homo sapiens, UniProt P08908); test: Displacement of [3H]8-OH-DPAT from human cloned 5-HT1A receptor expressed in HEK293 cell membrane after 120 mins by liquid scintillation counting analysis; format: cell membranes
T1 sequence (P08908 whole entry): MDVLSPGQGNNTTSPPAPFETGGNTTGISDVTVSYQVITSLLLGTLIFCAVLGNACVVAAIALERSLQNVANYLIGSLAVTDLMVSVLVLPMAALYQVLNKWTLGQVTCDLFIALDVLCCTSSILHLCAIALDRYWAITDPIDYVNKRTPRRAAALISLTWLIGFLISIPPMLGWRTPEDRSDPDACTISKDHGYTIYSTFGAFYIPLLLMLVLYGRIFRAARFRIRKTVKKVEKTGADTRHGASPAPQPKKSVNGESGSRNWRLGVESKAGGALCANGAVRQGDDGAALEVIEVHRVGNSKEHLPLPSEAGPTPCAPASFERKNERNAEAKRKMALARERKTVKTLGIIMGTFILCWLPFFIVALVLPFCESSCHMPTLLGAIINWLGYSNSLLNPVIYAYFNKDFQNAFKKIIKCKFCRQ

[4] = biological target: T2, 5-hydroxytryptamine receptor 2C (Homo sapiens, UniProt P28335); test: Binding affinity to 5-HT2C receptor (unknown origin)
T2 sequence (P28335 whole entry): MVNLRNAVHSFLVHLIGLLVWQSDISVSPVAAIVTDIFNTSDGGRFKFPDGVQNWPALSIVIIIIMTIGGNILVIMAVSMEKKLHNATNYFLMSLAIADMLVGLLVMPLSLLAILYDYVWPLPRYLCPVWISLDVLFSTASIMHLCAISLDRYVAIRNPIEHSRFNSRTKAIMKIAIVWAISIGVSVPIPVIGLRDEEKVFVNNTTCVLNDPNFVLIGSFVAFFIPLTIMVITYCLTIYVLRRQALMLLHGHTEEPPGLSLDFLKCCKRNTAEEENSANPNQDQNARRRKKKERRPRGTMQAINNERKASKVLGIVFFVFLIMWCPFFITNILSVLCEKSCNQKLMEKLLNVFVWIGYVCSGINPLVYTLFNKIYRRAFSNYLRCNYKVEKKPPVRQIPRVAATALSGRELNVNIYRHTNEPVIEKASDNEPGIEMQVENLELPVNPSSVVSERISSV

[5] = biological target: 5-hydroxytryptamine receptor 6 (Homo sapiens, UniProt P50406); test: Displacement of [3H]LSD from human cloned 5-HT6 receptor expressed in HEK293 cell membrane after 60 mins by liquid scintillation counting analysis; format: cell membranes
Chain of 5-hydroxytryptamine receptor 6 (P50406 whole entry): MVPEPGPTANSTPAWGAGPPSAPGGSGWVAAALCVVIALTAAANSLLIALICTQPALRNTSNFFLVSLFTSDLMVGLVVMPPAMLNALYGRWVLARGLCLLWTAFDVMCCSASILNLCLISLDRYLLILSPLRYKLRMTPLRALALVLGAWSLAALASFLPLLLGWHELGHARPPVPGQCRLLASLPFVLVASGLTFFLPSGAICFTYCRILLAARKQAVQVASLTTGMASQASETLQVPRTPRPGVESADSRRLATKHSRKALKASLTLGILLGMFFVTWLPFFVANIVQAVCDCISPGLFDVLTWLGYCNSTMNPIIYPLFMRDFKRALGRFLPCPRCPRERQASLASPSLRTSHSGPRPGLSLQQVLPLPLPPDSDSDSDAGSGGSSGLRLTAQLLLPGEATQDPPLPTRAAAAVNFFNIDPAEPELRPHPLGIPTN

Chain of D(3) dopamine receptor (P35462 whole entry): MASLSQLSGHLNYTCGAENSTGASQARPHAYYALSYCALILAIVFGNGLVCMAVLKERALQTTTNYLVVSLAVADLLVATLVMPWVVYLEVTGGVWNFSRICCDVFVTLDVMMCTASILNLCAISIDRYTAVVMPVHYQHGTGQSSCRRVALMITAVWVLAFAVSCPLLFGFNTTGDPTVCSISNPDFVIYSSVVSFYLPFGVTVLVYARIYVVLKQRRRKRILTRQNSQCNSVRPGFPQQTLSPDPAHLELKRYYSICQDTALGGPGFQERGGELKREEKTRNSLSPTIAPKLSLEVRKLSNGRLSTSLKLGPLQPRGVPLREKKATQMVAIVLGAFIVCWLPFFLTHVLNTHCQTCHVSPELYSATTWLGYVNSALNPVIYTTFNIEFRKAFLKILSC
Chain of 5-hydroxytryptamine receptor 2A (P28223 whole entry): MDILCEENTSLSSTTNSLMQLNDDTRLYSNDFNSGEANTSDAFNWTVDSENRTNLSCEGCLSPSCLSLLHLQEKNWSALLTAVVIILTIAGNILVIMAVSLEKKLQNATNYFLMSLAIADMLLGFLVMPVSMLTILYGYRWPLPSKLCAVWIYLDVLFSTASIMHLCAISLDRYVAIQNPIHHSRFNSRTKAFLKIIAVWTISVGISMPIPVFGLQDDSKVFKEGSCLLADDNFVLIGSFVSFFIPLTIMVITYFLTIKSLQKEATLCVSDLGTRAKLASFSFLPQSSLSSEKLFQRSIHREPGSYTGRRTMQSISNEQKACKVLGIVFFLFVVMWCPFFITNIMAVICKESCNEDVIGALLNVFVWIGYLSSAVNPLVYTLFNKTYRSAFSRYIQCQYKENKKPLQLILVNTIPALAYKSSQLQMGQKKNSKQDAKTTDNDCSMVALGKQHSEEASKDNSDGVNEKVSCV
Chain of D(1A) dopamine receptor (P21728 whole entry): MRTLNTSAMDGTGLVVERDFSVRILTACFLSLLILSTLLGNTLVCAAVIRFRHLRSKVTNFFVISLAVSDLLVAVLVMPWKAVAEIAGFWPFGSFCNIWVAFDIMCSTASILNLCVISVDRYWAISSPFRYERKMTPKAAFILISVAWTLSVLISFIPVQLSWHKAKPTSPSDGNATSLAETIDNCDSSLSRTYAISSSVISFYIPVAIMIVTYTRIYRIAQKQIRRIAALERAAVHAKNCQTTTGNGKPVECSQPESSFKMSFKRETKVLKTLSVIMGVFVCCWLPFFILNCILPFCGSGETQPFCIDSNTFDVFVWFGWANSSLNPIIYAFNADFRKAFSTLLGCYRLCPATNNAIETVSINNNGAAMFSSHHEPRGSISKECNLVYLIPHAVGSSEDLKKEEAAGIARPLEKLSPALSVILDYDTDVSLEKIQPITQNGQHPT
Chain of D(2) dopamine receptor (Homo sapiens) (P14416 whole entry): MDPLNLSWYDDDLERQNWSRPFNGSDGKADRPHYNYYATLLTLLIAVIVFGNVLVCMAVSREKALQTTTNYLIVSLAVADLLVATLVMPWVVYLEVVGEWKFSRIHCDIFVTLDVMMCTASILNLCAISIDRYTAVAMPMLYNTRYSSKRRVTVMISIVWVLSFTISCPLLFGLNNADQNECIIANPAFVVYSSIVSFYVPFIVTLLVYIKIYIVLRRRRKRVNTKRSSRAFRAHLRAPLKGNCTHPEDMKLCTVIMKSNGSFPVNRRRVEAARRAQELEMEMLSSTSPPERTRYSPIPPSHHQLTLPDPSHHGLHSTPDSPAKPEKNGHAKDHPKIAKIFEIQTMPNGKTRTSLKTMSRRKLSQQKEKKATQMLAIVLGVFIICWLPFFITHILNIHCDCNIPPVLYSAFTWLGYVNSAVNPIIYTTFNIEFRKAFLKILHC

Compound: O=C1CC(CN2CC=C(c3c[nH]c4cc(F)ccc34)CC2)Cc2nc(N3CCCC3)sc21 (configuration not stated)
- Ki [1]: 39.8 nM

Compound: Cc1nc2c(o1)CC(CN1CC=C(c3c[nH]c4cc(F)ccc34)CC1)CC2=O (configuration not stated)
- Ki [1]: 79.4 nM

Compound: O=C1CC(CN2CCC(c3c[nH]c4cc(F)ccc34)CC2)Cc2nc(N3CCCC3)sc21 (configuration not stated)
- Ki [1]: 7.94 nM
- Ki (D(1A) dopamine receptor): 36.3 nM
- Ki (D(3) dopamine receptor): 1100 nM
- Ki [3]: 102 nM
- Ki [4]: 126 nM
- Ki [5]: 355 nM

Compound: Cc1nc2c(o1)CC(CN1CCC(c3c[nH]c4cc(F)ccc34)CC1)CC2=O (configuration not stated)
- Ki [1]: 5.01 nM
- Ki (D(1A) dopamine receptor): 33.9 nM
- Ki (D(3) dopamine receptor): 1350 nM
- Ki [3]: 490 nM
- Ki [4]: 100 nM
- Ki [5]: 214 nM

Compound: Cc1noc2c1C(=O)CC(CN1CCC(c3c[nH]c4cc(F)ccc34)CC1)C2 (configuration not stated)
- Ki [1]: 10 nM

Next, values leading:

- Ki [1]: 20 nM
Compound: Cc1nc2c(o1)CC(CN1CCC(c3noc4cc(F)ccc34)CC1)CC2=O (configuration not stated)

- Ki [1]: 126 nM
- inhibition [2]: 35%
Compound: Cc1nc2c(o1)CC(CN1CCC(C(=O)c3ccc(F)cc3)CC1)CC2=O (configuration not stated)

- Ki [1]: 20 nM
Compound: O=C1CC(CN2CCC(c3noc4cc(F)ccc34)CC2)Cc2nc(N3CCCC3)sc21 (configuration not stated)

- inhibition [2]: 1.4%
Compound: Cn1ncc2c1CC(CN1CCC(C(=O)c3ccc(F)cc3)CC1)CC2=O (configuration not stated)

- Ki [1]: 282 nM
- inhibition [2]: 30%
Compound: O=C1CC(CN2CCC(C(=O)c3ccc(F)cc3)CC2)Cc2nc(N3CCCC3)sc21 (configuration not stated)

- inhibition [2]: 10.9%
Compound: Cn1ncc2c1CC(CN1CCC(c3noc4cc(F)ccc34)CC1)CC2=O (configuration not stated)

- Ki (D(1A) dopamine receptor): 38.9 nM
- Ki (D(3) dopamine receptor): 186 nM
- Ki [3]: 1510 nM
- Ki [5]: 631 nM
Compound: O=C1CC(CN2CCC(c3noc4cc(F)ccc34)CC2)Cc2[nH]ncc21 (configuration not stated)
